In PubChem BioAssay (NCI):
“And” between values parts separate entries of the source, which are not always exact repeats. Equal values may be shown once.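 Each compound was tested at five concentrations against cells in 96-well plates for 48 hours. Here, GI50 denotes the concentration required for 50% inhibition of growth. TGI: total growth inhibition.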

Experiments:
Experiment in all cases: growth of human tumour cells (NCI), 48 h
SNB-75 CNS = system: SNB-75 CNS
HCC-2998 colon = system: HCC-2998 colon
SW-620 colon = system: SW-620 colon
KM12 colon = system: KM12 colon
SR leukemia = system: SR leukemia
CCRF-CEM leukemia = system: CCRF-CEM leukemia
MDA-MB-435 = system: MDA-MB-435
T-47D breast = system: T-47D breast
EKVX NSCLC = system: EKVX NSCLC
SF-539 CNS = system: SF-539 CNS

Compound	GI50 (SNB-75 CNS) [µM]	TGI (SNB-75 CNS)	GI50 (HCC-2998 colon) [µM]	TGI (HCC-2998 colon)	GI50 (SW-620 colon) [µM]	TGI (SW-620 colon)	GI50 (KM12 colon) [µM]	TGI (KM12 colon)	GI50 (SR leukemia) [µM]	TGI (SR leukemia) [µM]	GI50 (CCRF-CEM leukemia) [µM]	TGI (CCRF-CEM leukemia) [µM]	GI50 (MDA-MB-435) [µM]	TGI (MDA-MB-435) [µM]	GI50 (T-47D breast) [µM]	TGI (T-47D breast) [µM]	GI50 (EKVX NSCLC) [µM]	TGI (EKVX NSCLC)	GI50 (SF-539 CNS) [µM]	TGI (SF-539 CNS)
Cc1ccc(SC2c3ccc(C)cc3Oc3nc(N)c(C#N)c(N)c32)cc1 (stereo not drawn)	1.5	4.53 µM	1.8	3.46 µM	1.84	3.84 µM	2.36	6.6 µM	2.16	5.54	2.18	6.77	1.81	3.4	1.8	5.01	1.59	3.09 µM	1.8	3.82 µM
O=C(/C=C/c1ccccc1)CCC1C(=O)c2ccccc2C1=O	–	> 100 µM	–	> 100 µM	–	> 100 µM	–	> 100 µM	–	> 100	–	> 100	–	> 100	–	> 100	–	> 100 µM	–	> 100 µM
CN(C)CCNC(=O)c1cccc2ccc(-c3ccc(O)cc3)nc12	–	11.7 µM	1.87	17.5 µM and 14.1 µM	–	11.1 µM	3.03	16.8 µM and 14.9 µM	–	15.7	–	7.25	–	15.5	–	6.98	–	26.3 µM	–	15.1 µM and 13.9 µM
COc1cccc(C2CC(C)(O)Oc3cc4c(cc32)OCO4)c1O (stereo not drawn)	–	60.2 µM	–	51.2 µM	–	> 100 µM	–	52.3 µM	–	> 51.7	–	> 95.9	–	9.77	–	> 100	–	99.4 µM	–	38.5 µM
C/C=C(\C)C(=O)O[C@H]1C=CC(=O)O[C@H]1CCC(=O)[C@H](C)O	20.4	41.4 µM	17.1	32.4 µM	4.9	16.2 µM	17.8	38.8 µM	2.22	13.2	0.014	9.1	11.8	27.3	10.4	32.3	17.8	33.6 µM	19.2	35.8 µM
COc1ccccc1/C=N\N/C(N)=N\N=C\c1ccccc1OC	0.149	> 48.5 µM	1.03	11.3 µM	0.376	18.9 µM	0.264	1.36 µM	0.0319	0.74	0.323	2.08	0.0235	0.0824	0.457	7.36	0.574	14.3 µM	0.264	1.02 µM
COc1cccc(CC(C)=C(c2ccc(OCCN(C)C)cc2)c2ccc(OCCN(C)C)cc2)c1	1.46	6.28 µM	0.895	4.92 µM	0.735	1.82 µM	4.08	8.77 µM	0.787	2.22	0.693	2.23	0.682	1.37	0.681	1.77	4.09	8.52 µM	0.589	1.1 µM
CSC1=Nc2c(c(C)c(C)n2COC(CO)CO)C2=NC(=O)C(C)N12 (stereo not drawn)	26.3	> 100 µM	> 100	> 100 µM	> 100	> 100 µM	> 100	> 100 µM	2.48	> 100	> 100	> 100	> 100	> 100	> 100	> 100	> 100	> 100 µM	> 100	> 100 µM
COC(=O)C[C@](O)(CCCC(C)(C)O)C(=O)O[C@@H]1C(OC)=C[C@]23CCCN2CCc2cc4c(cc2[C@H]13)OCO4	0.0235	0.657 µM and 0.0931 µM	0.0137	0.246 µM and 0.0428 µM	0.0293	2.59 µM and 5.05 µM	0.0326	0.885 µM and 0.182 µM	–	0.751	0.0282	–	0.0279	–	0.0297	–	0.0486	0.688 µM and 0.472 µM	0.0195	0.264 µM and 0.0539 µM
COc1cc(-c2oc(=O)ccc2C#Cc2ccccn2)cc(OC)c1OC	1.93	> 29.8 µM	0.236	4.6 µM	2.28	> 100 µM	0.884	> 100 µM	0.257	> 39.9	2.14	> 30	0.171	0.932	3.46	> 41.8	8.07	> 100 µM	3.03	13.8 µM
